Test results reported in US6040320A, “2-substituted imidazoles useful in the treatment of inflammatory diseases” (Ortho-McNeil Pharmaceutical, Inc., priority 1998, dated 2000).
Like-named read-outs stand apart in the source and are kept apart here.

Experiments:
[1] = target: T1, p38 (Homo sapiens, UniProt Q16539); experiment: in vitro inhibition of p38 (CPSB): purified recombinant 6xHis-p38, myelin basic protein substrate, 33P-ATP; format: biochemical
T1 construct: 6xHis (N); made in house; host or cells: E. coli
Method: Compounds of the invention were measured for their ability to inhibit the activity of p38 by the following in vitro assay.
A solution (38 μL) of purified recombinant p38 (where the amount of enzyme was determined empirically considering the linear range of the assay and the acceptable signal to noise ratio; 6xHis-p38 expressed in E.coli), myelin basic protein substrate (also determined empirically), a buffer of pH 7.5 (Hepes:25 mM, MgCl2 :10 mM, MnCl2 :10 mM) were added to 92 wells of a 96-well round bottom polypropylene plate. The remaining wells were used for control ("CTRL") and background ("BKG"). The CTRL was prepared with the enzyme, substrate buffer and 2% DMSO, and the BKG was prepared with substrate buffer and 2% DMSO. A solution (12 μL) of the test compound in DMSO (compounds were diluted to 125 μM in 10% DMSO/H2 O and assayed at 25 μM where the final DMSO concentration was 2%) was added to the testing wells. The ATP/^33 P-ATP solution (10 μL: containing 50 μM unlabeled ATP and 1 μCi ^33 P-ATP) was added to all wells and the completed plates were mixed and incubated at 30° C. for 30 min. Icecold 50% TCA/10 mM sodium phosphate (60 μL) were added to each well and the plates were kept on ice for 15 min. The contents of each well were transferred to the wells of a 96-well filterplate (Millipore, MultiScreen-DP) and the filterplate was placed on a vacuum manifold, fitted with a waste collection tray. The wells were washed five times with 10% TCA/10 mM sodium phosphate (200 μL) under vacuum. MicroScint-20 scintillant was added, the plates were sealed using Topseal-S sheets and counted in a Packard TopCount scintillation counter using a ^33 P liquid program with color quench correction, where the output is in color quench-corrected cpm. The % inhibition of the test compounds was calculated by the following formula: % inhibition=[1-(sample-BKG)/(CTRL-BKG)]×100.
Although compounds were initially tested at 25 μM, if warranted the compounds were tested at 4-fold increments above and below that concentration. In addition, lC50 s were calculated for some compounds using the Deltagraph 4-parameter curve fitting program.

[2] = test system: TNF-α; experiment: in vitro whole cell assay: LPS-stimulated TNF-α production in PBMC (ELISA); format: cell-based, human; settings: for IC50: read-out: TNF-α IC50
Method: In addition to the enzyme assay, the compounds of the invention were tested in an in vitro whole cell assay using peripheral blood mononuclear cells ("PBMC") which were obtained from human blood as follows. Freshly obtained venous blood was anticoagulated with heparin, diluted with an equal volume of phosphate buffered saline ("PBS") and placed in a sterile tube or other container. Aliquots (30 mL) of this mixture were transferred to centrifuge tubes which were underlaid with Ficoll-Hypaque (15 mL). The prepared tubes were centrifuged at 400×g without braking for 30 min at room temperature. Approximately 1/2 to 2/3 of the platelet layer above the mononuclear cell band was removed with a pipet. The majority of the mononuclear cell layer was carefully removed using a pipet and these PBMCs were diluted with PBS and spun at 600×g for 15 min. The resulting PBMCs were washed with another portion of PBS and spun at 400×g for 10 min at room temperature. The recovered pellets were diluted in low endotoxin RPMI/1% FCS culture medium and gave a cell concentration of 0.5-2.0 X 10^6 PMBC/mL. A small volume of the suspension was removed for counting on a hemocytometer and the remaining preparation was centrifuged at 200×g for 15 min at room temperature. The recovered pelleted PMBC were resuspended in RPMI/1% FCS to a concentration of 1.67×10^6 /mL.
To run the assay, the PBMC suspension (180 μL) was transferred to duplicate wells of a 96-well flat-bottom microtiter plate and incubated for 1 h at 37° C. A solution of test compound (10 μL: prepared at 20×the desired final concentration) was added to each well and the plate was incubated for 1 h at 37° C. A solution (10 μL) of LPS in RPMI/1% FCS (200 ng/mL) was added and the wells were incubated overnight at 37° C. The supernate (100 μL) was removed from each well and diluted with RPMI/1% FCS (400 μL). The samples were analyzed for TNF-α using a commercial ELISA kit (Genzyme). […] Since imidazoles which are unsubstituted at the 1-position are subject to tautomerization, the substituents listed for R1 and R2 are interchangeable when R3 is hydrogen.

[3] = test system: IL-1β; experiment: in vitro IL-1β production by LPS-stimulated plastic-adherent cells from PBMC (ELISA); format: cell-based; settings: adherent cells from human PBMC, read-out: inhibited the production of IL-1B, IC50
Method: Aliquots (30 mL) of this mixture were transferred to centrifuge tubes which were underlaid with Ficoll-Hypaque (15 mL). The prepared tubes were centrifuged at 400×g without braking for 30 min at room temperature. […] A small volume of the suspension was removed for counting on a hemocytometer and the remaining preparation was centrifuged at 200×g for 15 min at room temperature.

[4] = test system: TNF-α; experiment: in vivo rodent assay: inhibition of LPS induced TNF-α production, mouse; settings: oral, 25 mg/kg, LPS 1 mg/kg i.p.
Method: Mice (BALB / cJ females, Jackson Laboratories) or rats (Lewis males, Charles River) were fasted for 30 min prior to oral dosing with 5-10 mL/kg of test compound at 5-50 mg/kg. Thirty minutes after dosing, the animals were injected intraperitoneally with LPS at 1 mg/kg and returned to their cages for I h. Animals were anesthetized by CO2, exsanguinated by cardiac puncture and whole blood collected (0.1-0.7 mL). The blood was allowed to clot and serum was transferred to a centrifuge tube. This sample was centrifuged, serum was collected, aliquoted and frozen at -80° C. Samples were tested by commercial ELISAs for TNF-α (Endogen for mouse TNF-α and Biosource for rat TNF-α). Compounds 15 and 56 inhibited TNF-α production in the mouse at 88% and 37% respectively at a dose of 25 mg/kg.

T1 sequence (Q16539 whole entry): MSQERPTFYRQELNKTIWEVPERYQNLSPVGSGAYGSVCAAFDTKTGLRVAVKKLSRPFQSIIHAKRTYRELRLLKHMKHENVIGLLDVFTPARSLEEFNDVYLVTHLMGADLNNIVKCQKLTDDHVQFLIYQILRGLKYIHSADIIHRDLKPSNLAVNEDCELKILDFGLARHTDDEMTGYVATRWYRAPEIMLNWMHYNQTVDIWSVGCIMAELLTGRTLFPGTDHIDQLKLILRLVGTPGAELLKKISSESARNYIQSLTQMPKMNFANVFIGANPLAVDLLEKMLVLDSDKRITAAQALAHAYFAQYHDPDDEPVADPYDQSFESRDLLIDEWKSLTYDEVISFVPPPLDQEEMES

IC50 ([2]; human PBMC, LPS) | Structure (SMILES) | IC50 [1] | IC50 ([2]; Homo sapiens, PBMC) | other results
 | O=Cc1nc(-c2ccncc2)c(-c2ccc(F)cc2)[nH]1 [Compound 8, 5(4)-(4-Fluorophenyl)-4(5)-(4-pyridyl)-2-imidazole carboxaldehyde] | 0.8 µM | 0.14 µM | 
0.055 µM | CCCS(=O)(=O)Cc1nc(-c2ccncc2)c(-c2ccc(F)cc2)[nH]1 [Compound 59] |  |  | IC50 [3]: 0.35 µM
 | C[Si](C)(C)CCOCn1c(CCCCO)nc(-c2ccncc2)c1-c1ccc(F)cc1 [Compound 46] |  |  | CPSB % inhibition ([1]; @ 20 μm): 9%; TNF-α inhibition in words ([2]; human PBMC, LPS): inactive
 | CC(=O)OCCCCc1nc(-c2ccncc2)c(-c2ccc(F)cc2)n1COCC[Si](C)(C)C [Compound 45] |  |  | CPSB % inhibition ([1]; @ 20 μm): 8%; TNF-α inhibition in words ([2]; human PBMC, LPS): inactive
0.03 µM | O=C1c2ccccc2C(=O)N1CCCn1c(CO)nc(-c2ccc(F)cc2)c1-c1ccncc1 [Compound 56] |  |  | inhibited TNF-α production in the mouse [4]: 37%
0.1 µM | O=S(=O)(NCCCSc1nc(-c2ccc(F)cc2)c(-c2ccncc2)[nH]1)c1ccccc1 [Compound 30] |  |  | CPSB % inhibition ([1]; @ 20 μm): 92%
 | O=C(NCCCSc1nc(-c2ccncc2)c(-c2ccc(F)cc2)[nH]1)c1ccccc1 [Compound 26] | 2.18 µM | 0.1 µM | 
 | CC(=O)OCCCCc1nc(-c2ccc(F)cc2)c(-c2ccncc2)n1Cc1ccccc1 [Compound 17, 4-[1-Benzyl-4-(4-fluorophenyl)-5-(4-pyridyl)imidazol-2-yl]butyl acetate] | 2.63 µM | 0.5 µM | 
 | O=C(NCCCSc1nc(-c2ccncc2)c(-c2ccc(F)cc2)[nH]1)c1cccc2ccccc12 [Compound 28] | 1.25 µM | 0.097 µM | IC50 [3]: 0.086 µM
 | O=C1c2ccccc2C(=O)N1CCCCSc1nc(-c2ccncc2)c(-c2ccc(F)cc2)[nH]1 [Compound 27] | 2.46 µM | 2 µM | 
0.112 µM | O=C(NCCCSc1nc(-c2ccc(F)cc2)c(-c2ccncc2)[nH]1)c1ccco1 [Compound 29] |  |  | CPSB % inhibition ([1]; @ 20 μm): 91%
 | O=C1c2ccccc2C(=O)N1CCCSc1nc(-c2ccc(F)cc2)c(-c2ccncc2)[nH]1 [Compound 2, 5(4)-(4-Fluorophenyl)-2-(3-phthalimidoprop-1-yl)thio-4(5)-(4-pyridyl)-imidazole] | 0.79 to 1.8 µM | 1 µM | 
0.4 µM | O=C(CCCO)c1nc(-c2ccncc2)c(-c2ccc(F)cc2)[nH]1 [Compound 10, 4-Hydroxy-1-[5-(4-fluorophenyl)-4-(4-pyridyl)-imidazol-2-yl]butanone] |  |  | IC50 [3]: 0.8 µM
0.5 µM | O=C1c2ccccc2C(=O)N1CCSc1nc(-c2ccc(F)cc2)c(-c2ccncc2)[nH]1 [Compound 25] |  |  | CPSB % inhibition ([1]; @ 5 μm): 52%
0.04 µM | O=S(=O)(CCO)Cc1nc(-c2ccncc2)c(-c2ccc(F)cc2)[nH]1 [Compound 15, 5-(4-Fluorophenyl)-2-[4-hydroxy-2-sulfonyl-but-1-yl]-4-(4-pyridyl)-imidazole] |  |  | inhibited TNF-α production in the mouse [4]: 88%
 | O=C(NCCCSc1nc(-c2ccncc2)c(-c2ccc(F)cc2)[nH]1)c1cccs1 [Compound 4, 5(4)-(4-Fluorophenyl)-2-(3-(thien-2-ylamido)prop-1-yl)thio-4(5)-(4-pyridyl)-imidazole] | 1.25 µM | 0.01 µM | 
